What was measured:
[1] = test system: caspase-9; assay: Caspase protease activity measurement in cell extracts, caspase-9; assay type: cell-based, human; settings: 20 μM, substrate Ac-LEHD-AFC (FIG. 9)
Experimental: Caspase protease activity measurement. Cells were washed in PBS and then extracted in buffer [50 mM HEPES, pH 7.4, 1 mM EDTA, 0.1% Chaps, 5 mM DTT, and proteinase inhibitor cocktail (Roche)] on ice. Cell extracts were centrifuged for 30 min at 30 000×g at 4° C. Clarified extract were immediately analysed or stored at −80° C. […] The assay was carried out in 1 ml tubes, aliquots of lysates (200-300 μg of total protein) were mixed with 1 ml of buffer (25 mM PIPES/KOH, 2 mM EGTA, 5 mM DTT, and 0.1% Chaps, pH 7.3) and reactions were initiated by adding 50 μM substrate. Samples were incubated for 1 hour at 30° C. before the fluorescence was determined. Excitation and emission wavelengths were the same for both substrates (380 nm and 445 nm, respectively).

[2] = test system: human malignant melanoma cells G361; assay: In vitro cytotoxic activity, Calcein AM assay, G-361; assay type: cell-based; settings: 72 hours, read-out: IC 50 G-361
Procedure, shortened: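 Continuous 72 h drug exposure of cultured cells, followed by 1 h Calcein AM staining to count metabolically active cells; survival relative to untreated wells gave GI50.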

[3] = test system: HL-60 cells; assay: Cell cycle analysis (flow cytometry); assay type: cell-based, human; settings: 5 μM, 24 h (FIG. 8)
Experimental: Cell culture. A suspension of human promyelocytic HL-60 cells was cultured in RPMI-1640 medium supplemented with a 10% calf foetal serum and antibiotics in 5% CO2 atmosphere at 37° C. Cells were maintained at density from 1×10^5 to 6×10^5 cells per ml. HL-60 cells were obtained from ECACC.
Cell cycle analysis. Cells were washed in PBS and then fixed in 70% ethanol at −20° C. over night. Fixed cells are washed in PBS and stained in PBS containing PI (20 μg/ml) and RNase A (100 μg/ml) for 30 min at 37° C. prior to FACScan analysis (Mlejnek and Kolman 1999).

[4] = test system: p21^WAF-1 protein; assay: Induction of p21^WAF-1 protein in MCF-7 cells (SDS-PAGE, immunodetection); assay type: cell-based, human
Experimental: MCF-7 cells cultured at 37° C. in 5% CO2 atmosphere in D-MEM medium supplemented with 10% foetal calf serum were treated with 2OH3MeOBAPR concentrations range of 0-100 μM. 2OH3MeOBAPR was added into the medium from the 100 mM storage solution in DMSO. Cells were harvested after 12 hours incubation with 2OH3MeOBAPR, centrifuged (1000 rpm, 4° C., 5 min), washed twice by ice-cold PBS and re-centrifuged. These washed cells were then lysed by 1×CSB (loading buffer for SDS-PAGE, i.e. electrophoresis of proteins in polyacrylamide gel containing SDS). Cell lysate proteins were separated by SDS-PAGE and transferred onto a nitrocelulose (NC) membrane. NC membrane was blocked by 5% skimmed milk, 0.1% Tween 20 in PBS. Protein level of p21^WAF-1 and actin (as a loaded protein volume control) were detected immunochemically using commercially available specific monoclonal antibodies anti-p21^WAF-1 (Ab-1, Calbiochem) and anti-Actin (Clone AC-40, Sigma-Aldrich). The primary antibodies bind to target proteins were detected using rabbit secondary peroxidase-labeled antibody (RAM-Px, DAKO), followed by chemiluminiscence (ECL, Amersham-Pharmacia).
MCF-7 cells were incubated in presence of 1 μM 2OH3MeOBAPR. Treated cells were harvested and lysed after various time periods of 2OH3MeOBAPR treatment. […]

[5] = test system: Rosa multiflora; assay: In vitro and post vitro multiplication and rooting of rose; assay type: in vivo; settings: for Root number per plant / Total root length per plant (cm): Ex vitro, after four weeks of acclimatising; for Flower number per explant / Number of new shoots per explant / Root number per explant / Total root length per explant (cm): In vitro, 10 μM, 8 weeks

COc1cccc(CNc2ncnc3c2ncn3[C@@H]2O[C@H](CO)[C@@H](O)[C@H]2O)c1O [2-hydroxy-3-methoxybenzylamino, 6-(2-hydroxy-3-methoxybenzylamino)purine riboside]
activation of caspase-9 [1]: activate caspase proteases, especially caspase-9 and -3
IC50 [2]: 148 µM
effect on cell cycle [3]: does not inhibit cell cycle in certain control point(s), but rather unspecifically
p21^WAF-1 protein induction in dependence on duration of incubation ([4]; 1 μM, 6-24 hours after addition): Efficient p21^WAF-1 protein induction is achieved
p21^WAF-1 protein induction in dependence on concentration ([4]; 12 hours, 0-100 μM, effective at units of μmol/liter): Efficient p21^WAF-1 protein induction is achieved

COc1ccccc1CNc1ncnc2c1ncn2[C@@H]1O[C@H](CO)[C@@H](O)[C@H]1O [2-methoxybenzylamino, 6-(2-methoxybenzylamino)purine riboside]
Root number per plant [5]: 1.6
Total root length per plant (cm) [5]: 4.8 cm
Flower number per explant [5]: 0.17
Number of new shoots per explant [5]: 1.4
Root number per explant [5]: 0.0
Total root length per explant (cm) [5]: 0.0 cm
IC50 [2]: > 167 µM

OC[C@H]1O[C@@H](n2cnc3c(NCc4cccc(F)c4)ncnc32)[C@H](O)[C@@H]1O [3-fluorobenzylamino, 6-(3-fluorobenzylamino)purine riboside]
IC50 [2]: 15.7 µM

COc1cccc(CNc2ncnc3c2ncn3[C@@H]2O[C@H](CO)[C@@H](O)[C@H]2O)c1 [3-methoxybenzylamino, 6-(3-methoxybenzylamino)purine riboside]
Root number per plant [5]: 1.4
Total root length per plant (cm) [5]: 3.5 cm
Flower number per explant [5]: 0.00
Number of new shoots per explant [5]: 5.6
Root number per explant [5]: 0.0
Total root length per explant (cm) [5]: 0.0 cm
IC50 [2]: > 167 µM

Reference: patent US8119614B2, “Substitution derivatives of N6-benzyladenosine, methods of their preparation, their use for preparation of drugs, cosmetic preparations and growth regulators, pharmaceutical preparations, cosmetic preparations and growth regulators containing these compounds” (Ustav Experimentalni Botaniky Akademie Ved Ceske Republiky, priority 2002, dated 2012)
